Data as given in US8614327B2 (Vertex Pharmaceuticals Incorporated, priority 2004, dated 2013).
pEC50: −log10 of the molar value.

Biological target: T1, ΔF508-CFTR (Homo sapiens, UniProt P13569, DEL508-508)
T1 construct: expressed in transfected cells
Assay: Membrane potential optical (FRET/VIPR) assay, identification of potentiator compounds
Assay type: cell-based
Conditions: Table 3, assay not given; for % Activity: relative efficacy
Procedure, shortened: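 NIH3T3 mouse fibroblasts stably expressing ΔF508-CFTR, temperature-corrected 24 h at 27° C., read on VIPR by FRET between CC2-DMPE and DiSBAC2(3). Potentiators identified in a double-addition format, first adding chloride-free (gluconate) medium with or without compound.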

T1 sequence (P13569 with tags, fused parts or gaps DEL508-508): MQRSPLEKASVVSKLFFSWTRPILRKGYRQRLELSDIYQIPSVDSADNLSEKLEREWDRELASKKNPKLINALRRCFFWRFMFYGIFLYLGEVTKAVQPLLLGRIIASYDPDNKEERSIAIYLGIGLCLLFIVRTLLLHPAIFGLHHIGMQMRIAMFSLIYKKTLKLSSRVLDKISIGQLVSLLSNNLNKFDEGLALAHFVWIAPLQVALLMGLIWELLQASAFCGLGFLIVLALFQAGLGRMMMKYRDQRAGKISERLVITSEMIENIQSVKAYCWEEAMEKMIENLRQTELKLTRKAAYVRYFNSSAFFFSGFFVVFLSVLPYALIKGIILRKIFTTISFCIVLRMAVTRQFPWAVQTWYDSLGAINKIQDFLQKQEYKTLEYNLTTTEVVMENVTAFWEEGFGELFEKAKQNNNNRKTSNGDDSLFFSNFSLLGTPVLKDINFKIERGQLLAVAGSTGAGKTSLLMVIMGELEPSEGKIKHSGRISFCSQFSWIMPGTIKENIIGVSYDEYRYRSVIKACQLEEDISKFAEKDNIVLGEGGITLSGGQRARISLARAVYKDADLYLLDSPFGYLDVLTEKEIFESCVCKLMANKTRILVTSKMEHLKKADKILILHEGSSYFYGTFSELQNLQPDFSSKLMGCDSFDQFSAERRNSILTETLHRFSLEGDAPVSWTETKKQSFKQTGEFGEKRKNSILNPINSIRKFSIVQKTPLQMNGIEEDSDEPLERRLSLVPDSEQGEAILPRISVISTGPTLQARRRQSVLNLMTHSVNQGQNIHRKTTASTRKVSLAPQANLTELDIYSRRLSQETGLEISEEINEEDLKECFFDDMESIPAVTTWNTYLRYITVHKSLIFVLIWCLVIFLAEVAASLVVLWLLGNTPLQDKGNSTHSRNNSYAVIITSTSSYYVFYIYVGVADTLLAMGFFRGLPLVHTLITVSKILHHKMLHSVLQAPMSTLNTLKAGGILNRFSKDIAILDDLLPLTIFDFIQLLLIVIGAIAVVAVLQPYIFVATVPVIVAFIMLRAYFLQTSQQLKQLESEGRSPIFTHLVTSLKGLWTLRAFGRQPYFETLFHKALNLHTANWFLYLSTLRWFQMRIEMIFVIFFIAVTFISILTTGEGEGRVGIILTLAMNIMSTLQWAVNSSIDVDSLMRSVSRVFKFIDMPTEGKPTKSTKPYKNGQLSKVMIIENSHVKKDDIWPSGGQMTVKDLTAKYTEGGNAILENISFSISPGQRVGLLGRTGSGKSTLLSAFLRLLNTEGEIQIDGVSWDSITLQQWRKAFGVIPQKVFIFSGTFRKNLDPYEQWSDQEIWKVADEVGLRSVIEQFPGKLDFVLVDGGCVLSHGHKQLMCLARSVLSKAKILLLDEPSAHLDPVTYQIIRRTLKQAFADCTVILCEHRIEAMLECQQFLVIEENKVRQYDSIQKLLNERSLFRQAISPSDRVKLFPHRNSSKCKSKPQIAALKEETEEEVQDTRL

| SMILES | pEC50 | % Activity |
| --- | --- | --- |
| O=C(Nc1ccccc1)c1c[nH]c2cc(Cl)ccc2c1=O [Compound 411, 7-chloro-4-oxo-N-phenyl-1H-quinoline-3-carboxamide] | > 5.00 | ++ (between 25% to 100%) |
| Cc1ccccc1NC(=O)c1c[nH]c2ccccc2c1=O [Compound 459, N-(o-tolyl)-4-oxo-1H-quinoline-3-carboxamide] | > 5.00 | ++ (between 25% to 100%) |
| O=C(Nc1ccccc1)c1c[nH]c2cc(C(F)(F)F)ccc2c1=O [Compound 346, 4-oxo-N-phenyl-7-(trifluoromethyl)-1H-quinoline-3-carboxamide] | > 5.00 | ++ (between 25% to 100%) |
| CC(C)(C)c1cc(F)c(NC(=O)c2c[nH]c3c(C(F)(F)F)cccc3c2=O)cc1O [Compound 638, N-(2-fluoro-5-hydroxy-4-tert-butyl-phenyl)-4-oxo-8-(trifluoromethyl)-1H-quinoline-3-carboxamide] | > 5.00 | + (<25%) |
| O=C(Nc1ccccn1)c1c[nH]c2ccccc2c1=O [Compound 155, 4-oxo-N-(2-pyridyl)-1H-quinoline-3-carboxamide] | 4.22 to 4.60 | + (<25%) |
| O=C(Nc1ccccc1-c1ccccn1)c1c[nH]c2ccccc2c1=O [Compound 692, 4-oxo-N-[2-(2-pyridyl)phenyl]-1H-quinoline-3-carboxamide] | > 5.00 | ++ (between 25% to 100%) |
| CC(C)(C)c1cc(F)c(NC(=O)c2c[nH]c3c(C#N)cccc3c2=O)cc1O [Compound 519, 8-cyano-N-(2-fluoro-5-hydroxy-4-tert-butyl-phenyl)-4-oxo-1H-quinoline-3-carboxamide] | > 5.00 | ++ (between 25% to 100%) |
| CC(C)(C)c1cc(F)c(NC(=O)c2c[nH]c3cc(C#N)ccc3c2=O)cc1O [Compound 677, 7-cyano-N-(2-fluoro-5-hydroxy-4-tert-butyl-phenyl)-4-oxo-1H-quinoline-3-carboxamide] | > 5.00 | ++ (between 25% to 100%) |
| Cn1cnnc1-c1ccc(NC(=O)c2c[nH]c3ccccc3c2=O)cc1 [Compound 301, N-[4-(4-methyl-4H-1,2,4-triazol-3-yl)phenyl]-4-oxo-1H-quinoline-3-carboxamide] | 4.22 to 4.60 | + (<25%) |
| NCc1ccccc1-c1ccc(NC(=O)c2c[nH]c3ccccc3c2=O)cc1 [Compound 86, N-[4-[2-(aminomethyl)phenyl]phenyl]-4-oxo-1H-quinoline-3-carboxamide] | 4.60 to 5.00 | ++ (between 25% to 100%) |
| Cc1ccc(NC(=O)c2c[nH]c3ccccc3c2=O)c(F)c1 [Compound 289, N-(2-fluoro-4-methyl-phenyl)-4-oxo-1H-quinoline-3-carboxamide] | > 5.00 | ++ (between 25% to 100%) |
| O=C(Nc1cc(O)c2ccccc2c1)c1c[nH]c2ccccc2c1=O [Compound 551, N-(4-hydroxy-2-naphthyl)-4-oxo-1H-quinoline-3-carboxamide] |  | ++ (between 25% to 100%) |
| CC(C)CNC(=O)c1cc2cc[nH]c2cc1NC(=O)c1c[nH]c2ccccc2c1=O [Compound 343, N-[5-(Isobutylcarbamoyl)-1H-indol-6-yl]-4-oxo-1H-quinoline-3-carboxamide] | 4.60 to 5.00 | ++ (between 25% to 100%) |
| CC(C)(C)c1cc2cc[nH]c2cc1NC(=O)c1c[nH]c2c(C(F)(F)F)cccc2c1=O [Compound 559, 4-oxo-N-(5-tert-butyl-1H-indol-6-yl)-8-(trifluoromethyl)-1H-quinoline-3-carboxamide] | 4.60 to 5.00 | + (<25%) |
| C[C@H]1CCCN1c1ccc(NC(=O)c2c[nH]c3ccc(F)cc3c2=O)c(C(F)(F)F)c1 [Compound 714, (S)-6-fluoro-N-(4-(2-methylpyrrolidin-1-yl)-2-(trifluoromethyl)phenyl)-4-oxo-1,4-dihydroquinoline-3-carboxamide] | > 5.00 | ++ (between 25% to 100%) |
| Cc1cccc(C(C)C)c1NC(=O)c1c[nH]c2ccccc2c1=O [Compound 430, N-(2-isopropyl-6-methyl-phenyl)-4-oxo-1H-quinoline-3-carboxamide] | > 5.00 | ++ (between 25% to 100%) |
| C=Cc1ccc(NC(=O)c2c[nH]c3ccccc3c2=O)cc1 [Compound 452, 4-oxo-N-(4-vinylphenyl)-1H-quinoline-3-carboxamide] | > 5.00 | ++ (between 25% to 100%) |
| O=C(Nc1ccccc1-c1ccc(F)cc1F)c1c[nH]c2ccccc2c1=O [Compound 63, N-[2-(2,4-difluorophenyl)phenyl]-4-oxo-1H-quinoline-3-carboxamide] | > 5.00 | ++ (between 25% to 100%) |
| COc1cc(NC(=O)c2c[nH]c3ccc(F)cc3c2=O)cc(C(F)(F)F)c1 [Compound 666, 6-fluoro-N-[3-methoxy-5-(trifluoromethyl)phenyl]-4-oxo-1H-quinoline-3-carboxamide] | > 5.00 | ++ (between 25% to 100%) |

| SMILES | pEC50 | % Activity |
| --- | --- | --- |
| CC1=NN(c2cccc(NC(=O)c3c[nH]c4ccccc4c3=O)c2)C(=O)C1 [Compound 212, N-[3-(3-methyl-5-oxo-1,4-dihydropyrazol-1-yl)phenyl]-4-oxo-1H-quinoline-3-carboxamide] | 4.22 to 4.60 | + (<25%) |
| Cc1ccnc(NC(=O)c2c[nH]c3ccccc3c2=O)c1 [Compound 84, N-(4-methyl-2-pyridyl)-4-oxo-1H-quinoline-3-carboxamide] | 4.22 to 4.60 | + (<25%) |
| O=C(Nc1cccc(-c2cccs2)c1)c1c[nH]c2ccccc2c1=O [Compound 549, 4-oxo-N-[3-(2-thienyl)phenyl]-1H-quinoline-3-carboxamide] | > 5.00 | ++ (between 25% to 100%) |
| CCOc1ccccc1-c1ccccc1NC(=O)c1c[nH]c2ccccc2c1=O [Compound 344, N-[2-(2-ethoxyphenyl)phenyl]-4-oxo-1H-quinoline-3-carboxamide] |  | ++ (between 25% to 100%) |
| CCOC(=O)C(C)(C)c1ccc(NC(=O)c2c[nH]c3ccccc3c2=O)cc1 [Compound 420, 2-methyl-2-[4-[(4-oxo-1H-quinolin-3-yl)carbonylamino]phenyl]-propanoic acid ethyl ester] | > 5.00 | ++ (between 25% to 100%) |
| NC(=O)c1ccccc1NC(=O)c1c[nH]c2ccccc2c1=O [Compound 331, N-(2-carbamoylphenyl)-4-oxo-1H-quinoline-3-carboxamide] | 4.22 to 4.60 | + (<25%) |
| O=C(Nc1cccc2[nH]ccc12)c1c[nH]c2ccccc2c1=O [Compound 100, N-(1H-indol-4-yl)-4-oxo-1H-quinoline-3-carboxamide] | 4.22 to 4.60 | + (<25%) |
| CCCCc1ccccc1NC(=O)c1c[nH]c2ccccc2c1=O [Compound 336, N-(2-butylphenyl)-4-oxo-1H-quinoline-3-carboxamide] | > 5.00 | ++ (between 25% to 100%) |
| Cc1cccc2[nH]cc(C(=O)Nc3ccc(N4[C@H](C)CC[C@H]4C)cc3C(F)(F)F)c(=O)c12 [Compound 539, N-(4-((2R,5R)-2,5-dimethylpyrrolidin-1-yl)-2-(trifluoromethyl)phenyl)-5-methyl-4-oxo-1,4-dihydroquinoline-3-carboxamide] | > 5.00 | ++ (between 25% to 100%) |
| O=C(Nc1cc(O)c(C2CCCCC2)cc1C(F)(F)F)c1c[nH]c2ccccc2c1=O [Compound 619, N-[4-cyclohexyl-5-hydroxy-2-(trifluoromethyl)phenyl]-4-oxo-1H-quinoline-3-carboxamide] | > 5.00 | +++ (>100%) |
| CC(C)(C)c1cc(C(C)(C)C)c(NC(=O)c2c[nH]c3cc(OC(F)(F)F)ccc3c2=O)cc1O [Compound 694, N-(5-hydroxy-2,4-ditert-butyl-phenyl)-4-oxo-7-(trifluoromethoxy)-1H-quinoline-3-carboxamide] | > 5.00 | ++ (between 25% to 100%) |
| CC(C)(C)c1cc(C(C)(C)C)c(NC(=O)c2c[nH]c3ccccc3c2=O)c(O)c1O [Compound 220, N-(2,3-dihydroxy-4,6-ditert-butyl-phenyl)-4-oxo-1H-quinoline-3-carboxamide] | > 5.00 | ++ (between 25% to 100%) |
| O=C(Nc1cc2[nH]ccc2cc1C(=O)N1CCCCC1)c1c[nH]c2ccccc2c1=O [Compound 148, 4-oxo-N-[5-(1-piperidylcarbonyl)-1H-indol-6-yl]-1H-quinoline-3-carboxamide] | > 5.00 | ++ (between 25% to 100%) |
| CC(C)(C)c1c[nH]c2cc(NC(=O)c3c[nH]c4ccccc4c3=O)ccc12 [Compound 478, 4-oxo-N-(3-tert-butyl-1H-indol-6-yl)-1H-quinoline-3-carboxamide] | > 5.00 | ++ (between 25% to 100%) |
| O=C(Nc1cccc(SC(F)(F)F)c1)c1c[nH]c2ccccc2c1=O [Compound 456, 4-oxo-N-[3-(trifluoromethylsulfanyl)phenyl]-1H-quinoline-3-carboxamide] | > 5.00 | ++ (between 25% to 100%) |
| Cc1ccc2c(c1)c(=O)c(C(=O)Nc1ccccc1)cn2C [Compound 394, 1,6-dimethyl-4-oxo-N-phenyl-1H-quinoline-3-carboxamide] | 4.22 to 4.60 | + (<25%) |
| CCc1cccc(C(C)C)c1NC(=O)c1c[nH]c2ccccc2c1=O [Compound 314, N-(2-ethyl-6-isopropyl-phenyl)-4-oxo-1H-quinoline-3-carboxamide] |  | ++ (between 25% to 100%) |
| Cc1cccc2[nH]cc(C(=O)Nc3ccc(N4CCC[C@H]4C)cc3C(F)(F)F)c(=O)c12 [Compound 697, (R)-5-methyl-N-(4-(2-methylpyrrolidin-1-yl)-2-(trifluoromethyl)phenyl)-4-oxo-1,4-dihydroquinoline-3-carboxamide] | > 5.00 | ++ (between 25% to 100%) |
